Source: PubChem BioAssay (NCI)
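Following 48 hours of exposure in 96-well plates, responses at five concentrations were used to interpolate endpoints linearly. GI50 is the concentration that inhibits growth by half. The concentration for full growth arrest is given as TGI.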

What was measured:
Assay in all cases: NCI tumour cell line growth inhibition, 48 h
[1] = tested on: SR leukemia
[2] = tested on: UACC-62 melanoma
[3] = tested on: SN12C renal
[4] = tested on: COLO 205 colon
[5] = tested on: NCI/ADR-RES ovarian
[6] = tested on: IGROV1 ovarian
[7] = tested on: SNB-19 CNS
[8] = tested on: CAKI-1 renal
[9] = tested on: HL-60(TB) leukemia
[10] = tested on: SK-MEL-2 melanoma
[11] = tested on: OVCAR-8 ovarian
[12] = tested on: SNB-75 CNS
[13] = tested on: MCF7 breast
[14] = tested on: MDA-MB-435
[15] = tested on: PC-3 prostate
[16] = tested on: A549 NSCLC
[17] = tested on: HCT-15 colon
[18] = tested on: SK-OV-3 ovarian
[19] = tested on: SF-268 CNS
[20] = tested on: U251 CNS
[21] = tested on: BT-549 breast
[22] = tested on: ACHN renal
[23] = tested on: SF-295 CNS
[24] = tested on: K-562 leukemia
[25] = tested on: MDA-MB-231 breast
[26] = tested on: NCI-H23 lung
[27] = tested on: T-47D breast
[28] = tested on: HOP-92 NSCLC
[29] = tested on: TK-10 renal
[30] = tested on: SW-620 colon
[31] = tested on: DU-145 prostate
[32] = tested on: KM12 colon
[33] = tested on: SF-539 CNS
[34] = tested on: UACC-257 melanoma
[35] = tested on: NCI-H460 lung
[36] = tested on: UO-31 renal
[37] = tested on: NCI-H522 lung
[38] = tested on: NCI-H226 lung
[39] = tested on: CCRF-CEM leukemia
[40] = tested on: HT29 colon
[41] = tested on: A498 renal
[42] = tested on: HCT-116 colon
[43] = tested on: OVCAR-5 ovarian
[44] = tested on: MOLT-4 leukemia
[45] = tested on: 786-0 renal
[46] = tested on: RXF 393 renal
[47] = tested on: OVCAR-3 ovarian
[48] = tested on: HCC-2998 colon
[49] = tested on: MALME-3M melanoma
[50] = tested on: SK-MEL-28 melanoma
[51] = tested on: OVCAR-4 ovarian
[52] = tested on: SK-MEL-5 melanoma
[53] = tested on: RPMI-8226 leukemia
[54] = tested on: HOP-62 NSCLC
[55] = tested on: LOX IMVI melanoma

## CCn1nc(-c2ccc(C(=O)OC)cc2)nc2c(=O)n(C)c(=O)nc1-2
[1]
  GI50: 744 nM
  TGI: 12100 nM
[2]
  GI50: 216 nM
  TGI: 594 nM
[3]
  GI50: 193 nM
  TGI: 411 nM
[4]
  GI50: 211 nM
  TGI: 643 nM
[5]
  GI50: 484 nM
  TGI: 2420 nM
[6]
  GI50: 1080 nM
  TGI: 2450 nM
[7]
  GI50: 1110 nM
  TGI: 2370 nM
[8]
  GI50: 1220 nM
  TGI: 2460 nM
[9]
  GI50: 319 nM
  TGI: 1150 nM
[10]
  GI50: 524 nM
  TGI: 2040 nM
[11]
  GI50: 368 nM
  TGI: 1450 nM
[12]
  GI50: 1190 nM
  TGI: 2420 nM
[13]
  GI50: 148 nM
  TGI: 372 nM
[14]
  GI50: 162 nM
  TGI: 310 nM
[15]
  GI50: 347 nM
  TGI: 8220 nM
[16]
  GI50: 413 nM
  TGI: 1720 nM
[17]
  GI50: 371 nM
  TGI: 1610 nM
[18]
  GI50: 1450 nM
  TGI: 2750 nM
[19]
  GI50: 1120 nM
  TGI: 3060 nM
[20]
  GI50: 360 nM
  TGI: 1380 nM
[21]
  GI50: 1550 nM
  TGI: 2990 nM
[22]
  GI50: 1080 nM
  TGI: 2260 nM
[23]
  GI50: 637 nM
  TGI: 1980 nM
[24]
  GI50: 251 nM
  TGI: 1090 nM
[25]
  GI50: 461 nM
  TGI: 6330 nM
[26]
  GI50: 1220 nM
  TGI: 3160 nM
[27]
  GI50: 332 nM
  TGI: 1420 nM
[28]
  GI50: 1720 nM
  TGI: 3390 nM
[29]
  GI50: 3110 nM
  TGI: 6740 nM
[30]
  GI50: 676 nM
  TGI: 2180 nM
[31]
  GI50: 1110 nM
  TGI: 2320 nM
[32]
  GI50: 421 nM
  TGI: 2230 nM
[33]
  GI50: 359 nM
  TGI: 1550 nM
[34]
  GI50: 306 nM
  TGI: 1080 nM
[35]
  GI50: 488 nM
  TGI: 3270 nM
[36]
  GI50: 1080 nM
  TGI: 2280 nM
[37]
  GI50: 484 nM
  TGI: 1990 nM
[38]
  GI50: 1360 nM
  TGI: 2690 nM
[39]
  GI50: 566 nM
  TGI: 11300 nM
[40]
  GI50: 266 nM
  TGI: 2400 nM
[41]
  GI50: 166 nM
  TGI: 988 nM
[42]
  GI50: 283 nM
  TGI: 1010 nM
[43]
  GI50: 460 nM
  TGI: 1770 nM
[44]
  GI50: 393 nM
  TGI: 2410 nM
[45]
  GI50: 1320 nM
  TGI: 3310 nM
[46]
  GI50: 1570 nM
  TGI: 3260 nM
[47]
  GI50: 181 nM
  TGI: 566 nM
[48]
  GI50: 763 nM
  TGI: 2240 nM
[49]
  GI50: 216 nM
  TGI: 836 nM
[50]
  GI50: 1380 nM
  TGI: 2880 nM
[51]
  GI50: 479 nM
  TGI: 1880 nM
[52]
  GI50: 128 nM
  TGI: 260 nM
[53]
  GI50: 340 nM
  TGI: 1760 nM
[54]
  GI50: 1070 nM
  TGI: 2580 nM
[55]
  GI50: 375 nM
  TGI: 1500 nM
